# From patent publication US11490644B2, “Co-Q10, krill oil and vitamin D” (RB HEALTH (US) LLC, priority 2015, dated 2022)
# Where two headings read alike, the source gives them in different places.
# What was measured:
# Assay type in all cases: physicochemical
# [1] = Antioxidant study: influence of antioxidant on Co-Q10 stability in krill oil and Vitamin D; details: for Amount of Co-Q10: in krill oil and Vitamin D with the antioxidant
# Description: (§1) Several antioxidants were evaluated for their ability to stabilize Co-Q10 in krill oil and Vitamin D. The results are summarized in Table 2.
# [2] = Influence of antioxidant dosing on Co-Q10 stability
# Description: as §1
# [3] = Stability of Co-Q10 and Co-QH in krill oil and Vitamin D mixtures, accelerated conditions; details: over the 12-week period; 40° C., 75% relative humidity
# Description: Two formulations comprising Co-Q10 (Study I) and Co-QH (Study II) were evaluated for stability in krill oil and Vitamin D mixtures. The compositions were subjected to accelerated conditions (40° C., 75% relative humidity for up to 12 weeks), and the amounts of Co-Q10, Co-QH, and ubichromenol were evaluated at several time points.
# [4] = Influence of chelating agent on Co-Q10 stability; details: with the chelating agent
# [5] = antioxidant medium dose, 1 week
# [6] = antioxidant medium dose, 2 weeks
# [7] = antioxidant medium dose, Initial
compound,measurement,setting,value
O=C1O[C@H]([C@@H](O)CO)C(O)=C1O [Ascorbic Acid],Amount of Co-Q10,[1]; 1 week,133 mg
same,Amount of Co-Q10,[1]; 2 weeks,129 mg
same,Amount of Co-Q10,[1]; Initial,139 mg
same,Amount of Co-Q10,"[2]; antioxidant high dose, 1 week",100 mg
same,Amount of Co-Q10,"[2]; antioxidant high dose, 2 weeks",100 mg
same,Amount of Co-Q10,"[2]; antioxidant high dose, Initial",109 mg
same,Amount of Co-Q10,"[2]; antioxidant low dose, 1 week",91 mg
same,Amount of Co-Q10,"[2]; antioxidant low dose, 2 weeks",71 mg
same,Amount of Co-Q10,"[2]; antioxidant low dose, Initial",137 mg
same,Amount of Co-Q10,[2]; [5],136 mg
same,Amount of Co-Q10,[2]; [6],138 mg
same,Amount of Co-Q10,[2]; [7],145 mg
"COC1=C(OC)C(=O)C(C/C=C(\C)CC/C=C(\C)CC/C=C(\C)CC/C=C(\C)CC/C=C(\C)CC/C=C(\C)CC/C=C(\C)CC/C=C(\C)CC/C=C(\C)CCC=C(C)C)=C(C)C1=O [Co-Q10, Coenzyme Q10]",Stability in krill oil and Vitamin D (in words),[3],unstable
"COc1c(O)c(C)c(C/C=C(\C)CC/C=C(\C)CC/C=C(\C)CC/C=C(\C)CC/C=C(\C)CC/C=C(\C)CC/C=C(\C)CC/C=C(\C)CC/C=C(\C)CCC=C(C)C)c(O)c1OC [Co-QH, ubiquinol]",Stability in krill oil and Vitamin D (in words),[3],stable
O=C(O)CN(CCN(CC(=O)O)CC(=O)O)CC(=O)O [EDTA],Amount of Co-Q10,[4]; 1 week,10 mg
same,Amount of Co-Q10,[4]; 2 weeks,0 mg
same,Amount of Co-Q10,[4]; Initial,125 mg
C=CCc1ccc(O)c(OC)c1 [Eugenol],Ability to stabilize Co-Q10 in krill oil and Vitamin D (in words),[1],degrades rapidly
same,Amount of Co-Q10,[1]; 1 week,48 mg
same,Amount of Co-Q10,[1]; 2 weeks,25 mg
same,Amount of Co-Q10,[1]; Initial,142 mg
same,Amount of Co-Q10,"[2]; antioxidant high dose, 1 week",43 mg
same,Amount of Co-Q10,"[2]; antioxidant high dose, 2 weeks",26 mg
same,Amount of Co-Q10,"[2]; antioxidant high dose, Initial",146 mg
same,Amount of Co-Q10,"[2]; antioxidant low dose, 1 week",16 mg
same,Amount of Co-Q10,"[2]; antioxidant low dose, 2 weeks",14 mg
same,Amount of Co-Q10,"[2]; antioxidant low dose, Initial",142 mg
same,Amount of Co-Q10,[2]; [5],23 mg
same,Amount of Co-Q10,[2]; [6],16 mg
same,Amount of Co-Q10,[2]; [7],146 mg
"CC(=O)OO [Peracetic acid (PAA), Peracetic acid]",Amount of Co-Q10,[4]; 1 week,10 mg
same,Amount of Co-Q10,[4]; 2 weeks,0 mg
same,Amount of Co-Q10,[4]; Initial,137 mg
NC(N)=S [Thiourea],Ability to stabilize Co-Q10 in krill oil and Vitamin D (in words),[1]; Table 2,degrades rapidly
